The source of these data is ChEMBL document CHEMBL2073865 (Drug Metab Dispos, 2004).

Structures can show the parent of a compound that is named as a salt.

Common to all, as to format: functional, cell-based
Data set [1] has as its target T1, ATP-dependent translocase ABCB1 (Homo sapiens, UniProt P08183). The data set can be described thus: TP_TRANSPORTER: transepithelial transport of erythromycin in the presence of 3-Carboxy-4-methyl-5-propyl-2-furanpropanoic acid at 500uM and 1mM in MDR1-expressing MDCK cells. The conditions noted are these: dog.
For data set [2], the target named is T1, ATP-dependent translocase ABCB1. The data set can be described thus: TP_TRANSPORTER: transepithelial transport of erythromycin in the presence of Hippurate at 2mM in MDR1-expressing MDCK cells. The conditions noted are these: dog, 2000 µM.
For data set [3] the target is unchanged. The data set can be described thus: TP_TRANSPORTER: transepithelial transport of erythromycin in the presence of Indoxyl sulfate at 1mM in MDR1-expressing MDCK cells. The conditions noted are these: dog, 1000 µM.

T1 sequence (P08183 whole entry): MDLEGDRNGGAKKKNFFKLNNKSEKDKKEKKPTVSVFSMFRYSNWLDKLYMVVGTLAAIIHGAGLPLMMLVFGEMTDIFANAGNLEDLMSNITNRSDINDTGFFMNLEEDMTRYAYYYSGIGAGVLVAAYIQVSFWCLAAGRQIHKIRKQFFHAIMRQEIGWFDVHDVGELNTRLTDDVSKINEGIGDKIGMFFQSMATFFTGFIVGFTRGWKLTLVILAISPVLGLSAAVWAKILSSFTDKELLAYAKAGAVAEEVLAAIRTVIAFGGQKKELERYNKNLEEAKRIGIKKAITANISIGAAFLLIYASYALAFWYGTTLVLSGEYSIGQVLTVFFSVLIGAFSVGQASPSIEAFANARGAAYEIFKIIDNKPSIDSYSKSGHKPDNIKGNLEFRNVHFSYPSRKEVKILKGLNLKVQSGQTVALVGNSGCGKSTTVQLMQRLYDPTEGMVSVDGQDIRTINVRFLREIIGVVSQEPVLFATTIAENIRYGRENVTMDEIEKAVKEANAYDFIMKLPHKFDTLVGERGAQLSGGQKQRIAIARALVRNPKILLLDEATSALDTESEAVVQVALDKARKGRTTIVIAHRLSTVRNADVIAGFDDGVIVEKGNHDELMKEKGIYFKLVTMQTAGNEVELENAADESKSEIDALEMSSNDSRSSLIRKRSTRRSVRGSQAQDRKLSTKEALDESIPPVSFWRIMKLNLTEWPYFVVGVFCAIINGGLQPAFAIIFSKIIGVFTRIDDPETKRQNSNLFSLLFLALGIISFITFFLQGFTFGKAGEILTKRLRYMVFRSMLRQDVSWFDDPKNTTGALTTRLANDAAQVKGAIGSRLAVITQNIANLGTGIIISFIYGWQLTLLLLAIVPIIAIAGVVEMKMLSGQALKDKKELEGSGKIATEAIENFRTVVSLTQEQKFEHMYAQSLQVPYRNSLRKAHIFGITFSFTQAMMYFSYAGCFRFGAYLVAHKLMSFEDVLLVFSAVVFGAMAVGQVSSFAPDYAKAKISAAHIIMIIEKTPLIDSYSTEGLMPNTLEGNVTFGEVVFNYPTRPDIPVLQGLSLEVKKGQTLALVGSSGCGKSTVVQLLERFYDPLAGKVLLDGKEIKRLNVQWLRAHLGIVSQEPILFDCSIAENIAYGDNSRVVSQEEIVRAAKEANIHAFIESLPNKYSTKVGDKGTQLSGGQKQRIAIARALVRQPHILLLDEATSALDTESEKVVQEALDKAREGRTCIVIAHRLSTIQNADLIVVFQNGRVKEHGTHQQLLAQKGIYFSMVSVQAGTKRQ

On to `CCCc1oc(CCC(=O)O)c(C(=O)O)c1C`, for which the Activity result in data set [1] was “is not an inhibitor [-]”.
Consider `O=C(O)CNC(=O)c1ccccc1` [HIPPURIC ACID], for which, in data set [2], the Activity entry was “is not an inhibitor [-]”.
Turning to `O=S(=O)(O)Oc1c[nH]c2ccccc12` [INDOXYL SULFATE], in data set [3], the Activity result is “is not an inhibitor [-]”.
